# Test results taken from patent US20210205638A1, “PARATHYROID HORMONE AND REGENERATION OF DEGENERATIVE DISCS DISEASE” (THE JOHNS HOPKINS UNIVERSITY, priority 2017, published 2021).
# How the values were obtained:
# [1] = test system: NP cells; assay: Western blot of pCREB in cultured NP cells; assay type: cell-based, mouse
# Protocol: (§1) Green fluorescent protein (GFP) labeled NP cells of notochordal origin were isolated from 15-day old Noto^Cre/+::ROSA26-lacZ^flox/flox male mice as previously described. The NP cells from 15-day old PTH1R^+/+ and PTH1R^−/−, IFT88^+/+ and IFT88^−/− male mice. Briefly, the cells were isolated from the NP region of IVDs in the spinal column from mid thoracic to lower lumbar region and digested initially with TrypLE Express (Gibco) for 30 minutes on shaker, followed by 0.25 mg/ml Collagense-P (Roche) for another […] at 37° C. The digested cells were washed twice with PBS, and cultured in α-MEM (Gibco) supplemented with 10% fetal calf serum (Atlanta Biologicals), and 1% penicillin—streptomycin (Mediatech) to 80-90% confluence at 37° C., 5% CO2 and 5% O2.
# (§2) Western blot analyses were conducted on the protein lysates from in vitro cultured NP cells or NP tissues from mice at specific time points after PTH (1-34) treatment and human at different ages with lumbar disc degeneration. The protein extract was centrifuged, the concentration of supernatant evaluated by DC protein assay (Bio-Rad Laboratories), and then separated by SDS-PAGE and blotted on a polyvinylidene fluoride membrane (Bio-Rad Laboratories). Following incubation in specific antibodies, we detected proteins using an enhanced chemiluminescence kit (Amersham Biosciences). […]
# [2] = test system: 18-month-old mice; assay: iPTH in aged mice: in vivo micro-MRI of lumbar IVDs; set-up: species or system mouse; details: iPTH injection
# Protocol: In vivo Spinal IVD imaging was conducted with a horizontal 30-cm-bore 9.4T Bruker Biospec preclinical scanner equipped with custom-built, single-turn volume coil positioned orthogonal to the BO magnetic field. Anesthetization of mice was initiated with 4% isoflurane and maintained with a 2% isoflurane and oxygen mixture. Mice were placed supine on a tray and taped to minimize the motion artifacts. We acquired T2-weighted images using a relaxation enhancement (RARE) sequence with the following parameter: an echo time/repetition time (TE/TR) of 15.17 ms/3,000 ms, 35 slices at thickness of 0.35 mm, field of view (FOV) of 1.75 cm×1.75 cm and matrix size of 256×128. All T2-weighted images were processed to a final matrix size of 256×256 with an isotropic resolution of 0.068 mm pixel-1. For quantification of signal intensity as an indicator of disc tissue hydration, the region of interest at L3-L4 level in each group was selected and measured using Image-Pro Plus Software version 6.
# [3] = test system: NP cells; assay: Western blot of pCREB in NP cells of IFT88-/- or IFT88+/+ mice; assay type: cell-based, mouse
# Protocol: as §1, §2
# [4] = test system: NP cells; assay: iPTH in IFT88-/- and wild-type mice: immunostaining of pSmad2/3, CCN2, ACAN; assay type: in vivo, mouse
# Protocol: The 11 month-old PTH1R^+/+ and PTH1R^−/− male mice were randomized into four groups: PTH1R^+/++PTH (1-34), PTH1R^+/++Vehicle, PTH1R^−/−+PTH (1-34) and PTH1R^−/−+Vehicle groups (n=8 per group). The 11 month-olds IFT88^+/+ and IFT88^−/− male mice were randomized into four groups: IFT88^+/++PTH (1-34), IFT88^+/++Vehicle, IFT88^−/−+PTH (1-34) and IFT88^−/−+Vehicle groups (n=8 per group). Mice were subcutaneously injected with either PTH (1-34) or vehicle (1 mM acetic acid in phosphate buffered saline (PBS) with equivalent volume of PTH) daily, 5 days per week, and all mice were sacrificed 4 weeks after treatment with PTH (1-34)/vehicle.
# For immunocytochemical staining, we incubated GFP labeled NP cells co-stained with primary antibody to rabbit PTH1R PRB-635P (Covance, 1:100) for 1 h and subsequently stained with secondary antibodies conjugated with fluorescence at room temperature. At the time of euthanasia, we dissected and fixed the lumbar vertebral spine in 10% buffered formalin for 48 h, decalcified them in 10% EDTA (pH 7.4) for 14-21 days and embedded them in paraffin or optimal cutting temperature (OCT) compound (Sakura Finetek). Fourmicrometer-thick coronal-oriented sections of the L1-L6 spine were processed for safranin O and fast green staining. Sections for immunostaining was performed using a standard protocol and incubated with primary antibodies to rabbit ACAN (Abcam, 1:100), CCN2 (Abcam, 1:100), integrin β8 (Abcam, 1:200), pCREB (Abcam, 1:100) and PTH1R PRB-635P (Covance, 1:100), mouse pSmad2/3 (Santa Cruz, 1:100), integrin αvβ6 (Millipore, 1:100), integrin αvβ3 (Bioss, 1:100,), integrin αvβ5 (Bioss, 1:100) at 4° C. overnight. For immunohistochemical staining, a horse radish peroxidase-streptavidin detection system (Dako) was subsequently used to detect the immunoactivity, followed by counterstaining with hematoxylin (Sigma-Aldrich). For immunofluorescent assay, the slides were incubated with secondary antibodies conjugated with fluorescence at room temperature for 1 h while avoiding light. We used isotype-matched controls, such as polyclonal rabbit IgG (R&D Systems, AB-105-C) under the same concentrations and conditions as negative controls. We micro photographed sections to perform histomorphometric measurements on the entire area of the L3-L4 of the spine (Olympus DP71).
# Quantitative histomorphometric analysis was conducted in a blinded fashion with Image-Pro Plus Software version 6.0 (Media Cybernetics Inc). IVD histological score were obtained as previously described67. Five randomly selected sections per mice in each group at L3-L4 level were chosen for quantitative histomorphometric analysis. The percentage of pSmad2/3 and pCREB positive cells was obtained by counting the number of positive staining cells to the number of total cells in the NP region. The percentage area of CCN2 and ACAN positive staining was calculated by measuring the positive area to the whole area of the L3-L4 in each group.
# [5] = wild-type mice relative to vehicle mice
smiles,measurement,setting,value
"CC[C@H](C)[C@H](NC(=O)[C@H](CCC(=O)O)NC(=O)[C@H](CO)NC(=O)[C@@H](NC(=O)[C@@H](N)CO)C(C)C)C(=O)N[C@@H](CCC(N)=O)C(=O)N[C@@H](CC(C)C)C(=O)N[C@@H](CCSC)C(=O)N[C@@H](Cc1cnc[nH]1)C(=O)N[C@@H](CC(N)=O)C(=O)N[C@@H](CC(C)C)C(=O)NCC(=O)N[C@@H](CCCCN)C(=O)N[C@@H](Cc1cnc[nH]1)C(=O)N[C@@H](CC(C)C)C(=O)N[C@@H](CC(N)=O)C(=O)N[C@@H](CO)C(=O)N[C@@H](CCSC)C(=O)N[C@@H](CCC(=O)O)C(=O)N[C@@H](CCCN=C(N)N)C(=O)N[C@H](C(=O)N[C@@H](CCC(=O)O)C(=O)N[C@@H](Cc1c[nH]c2ccccc12)C(=O)N[C@@H](CC(C)C)C(=O)N[C@@H](CCCN=C(N)N)C(=O)N[C@@H](CCCCN)C(=O)N[C@@H](CCCCN)C(=O)N[C@@H](CC(C)C)C(=O)N[C@@H](CCC(N)=O)C(=O)N[C@@H](CC(=O)O)C(=O)N[C@H](C(=O)N[C@@H](Cc1cnc[nH]1)C(=O)N[C@@H](CC(N)=O)C(=O)N[C@@H](Cc1ccccc1)C(=O)O)C(C)C)C(C)C [PTH (1-34), teriparatide]",phosphorylation of CREB (Western blot),[1]; at 30 min,induced phosphorylation of CREB
same,PTH-enhanced phosphorylation of CREB,[1]; knockdown of pallidin with siRNA,blocked
same,MRI signal intensity of lumbar IVDs,[2],significantly increased
same,levels of CREB phosphorylation by PTH,[3]; IFT88-/- NP cells (disruption of primary cilia),significantly reduced
same,phosphorylation of CREB (Western blot),[3]; NP cells of wild-type mice,significantly stimulated
same,PTH effect on level of CCN2,[4]; IFT88-/- mice,blunted
same,PTH effect on level of aggrecan,[4]; IFT88-/- mice,blunted
same,PTH effect on number of pSmad2/3+ NP cells,[4]; IFT88-/- mice,blunted
same,level of CCN2,[4]; [5],significantly stimulated
same,level of aggrecan,[4]; [5],significantly stimulated
same,number of pSmad2/3+ NP cells,[4]; [5],significantly stimulated
